Molecules are shown by their SMILES. Structures can show the parent of a compound that is named as a salt.

Series [1] can be described thus: physchem. The class given is physicochemical. From the text:
The appropriate amine is heated with an equimolar amount of either tizoxanide or RM4848 in methanol until a clear solution is obtained. Any small amounts of undissolved solid are removed by filtration. On cooling, the desired salt may crystallize immediately; addition of an equal volume of a solvent, such as diethyl ether (for the tizoxanide salts) or concentration to a small volume, then addition of excess ether (for salts of RM4848), may be used to obtain solid products. In general the salts of RM4848 are more soluble under the above conditions. All the salts are more soluble in water than the parent thiazolides.
The resulting slurry was filtered without issues; the filtration went easy on a glass sintered funnel. The cake was washed with water (3×2 Veq) and methanol (3×2 Veq). Combining the neutralization step and aqueous washings provide that no HCl remains in the cake. Avoiding residual HCl in the product may be important because it could react with ethanolamine during step 2. Washing the cake with methanol allows for the removal of water. […] This way no Tizoxanide is lost during the washing of the cake; nevertheless, the remaining NTZA is not removed either.
RM5071 is not soluble in ethyl acetate, but it tends to form a sticky material. This was also observed during a test reaction in pure ethyl acetate. In addition, it was observed that RM5071 is almost soluble in methanol at a concentration of 5 mg/mL.

A short description of series [2]: Bioavailability pharmacokinetic study, single oral gavage dose in rats. It counts as in vivo, Sprague-Dawley rats. To be noted: for maximum concentrations (Cmax) of T (medians): both, Sprague-Dawley. As to the method:
A study was conducted to evaluate the bioavailability of tizoxanide (T) and tizoxanide glucuronide (TG) in plasma following oral administration of a single dose of 90 mg/kg RM-5071, RM-5072 and nitazoxanide by oral gavage to four male and four female Sprague-Dawley rats. Plasma samples were collected at 0.083, 0.167, 0.25, 0.5 1, 2, 6, 12 and 24-hours post-dose. Concentrations of T and TG were determined using mass spectrometry. […] These compounds are rapidly absorbed achieving Cmax within 5 minutes after an oral dose.
Animals and treatment. Three groups of four male and four female Sprague-Dawley rats were administered RM-5071, RM-5072 or NTZ as a single oral gavage dose as detailed in the table below:
Nine serial blood samples were obtained from each animal at 0.083, 0.167, 0.25, 0.5 1, 2, 6, 12 and 24-hours post-dose. Derived plasma samples were stored in sodium heparinized tubes at −70° C. or lower until they were shipped on dry ice via overnight courier for analysis of T and TG concentrations by mass spectrometry.
Because some animals glucurono-conjugate T faster than others, the extent, rate and variability of absorption of these three compounds using the sum of free and glucurono-conjugated T concentrations at each timepoint were evaluated. To arrive at the concentrations of glucurono-conjugated T, TG concentrations were multiplied by 61% (molecular weight of T=270 divided by molecular weight of TG=441).

The conditions of series [3]: in vivo; cited from earlier work.
The nature of series [4]: physchem. It counts as physicochemical. To be noted: for solubility: thermodynamic from solid. As for the experimental part:
The apparent solubility of RM-5071 was tested using several solvents, specifically: DMF, DMSO, acetonitrile (ACN), water, ACN/water mixture, methanol, isopropanol, and ethanol. United States Pharmacopeia (USP) classify the solubility regardless of the solvent used, just following defined criteria summarized in Table 10. The solute was initially dissolved in each of the solvents or solvent system at a lmg/mL concentration. If solute remained undissolved, a fresh solution of lower concentration was subsequently prepared until the solid was observed completely dissolved. This concentration limit was estimated as the apparent solubility.
The solutions of RM-5071 were prepared, dissolving 10 mg in increasing solvent volumes ranging from 10 mL, 100 mL, to 1000 mL in each of the solvents. According to the visual inspection and observations the apparent solubility of RM-5071 was classified according the 10, as defined by the USP.
The solubility studies of RM-5071 were performed in several solvents as specified on Table 11 at room temperature. For the purpose of this chemical characterization report, the terms specified on Table 10 were used to describe the solubility of RM 5071 in different solvents on Table 12

A short description of series [5]: physchem. It counts as physicochemical. As to the method:
The acid titration was performed by adding 20 mL of a 1 mg/mL RM-5071 solution poured onto a beaker (titrate), the pH of the solution was measured while using a solution of 0.01N HCl as the titrant. The alkaline titration was performed by adding 20 mL of a 1 mg/mL RM-5071 solution were poured onto a beaker, the pH of the solution was measured while adding a solution 0.02 N NaOH as the titrant. The solutions had agitation with a magnetic stirrer during titration and it was stopped during pH measurements.
The inflection point was calculated using the second derivative of the experimental curve, the volume for the equivalence point is 5.83 mL of 0.01 N HCl, at a pH =5.99. […] The pKa of a phenolic proton is 9.9 as per Vollhardt, K. P. C.; Schore, N. E., Organic Chemistry; Palgrave Version: Structure and Function. Macmillan International Higher Education: 2014.
This is another data set of the same source.

A short description of series [6]: Thermogravimetric analysis (TGA). It counts as physicochemical. From the text:
Thermogravimetric analysis (TGA) is an analytical technique used to determine the thermal stability of a material and its fraction of volatile components by monitoring the weight change that occurs as a substance is heated. As many weight loss curves look similar, the curves may require transformation before results may be interpreted. A derivative weight loss curve can be used to tell the point at which weight loss is most apparent. The analysis is normally carried out in air or in an inert atmosphere such as nitrogen.
For the TGA analysis, amounts between 2.0 to 2.6 mg of both RM-5071 and desacetyl-NTZA samples were placed individually in platinum pans. The temperature method was: step 1: equilibrate at 25° C., step 2: heat from 25° C. to 700° C. at 10.00° C./min, step 3: hold for 5 min at 700° C. The analyses were carried out under nitrogen.

Series [7] can be described thus: Differential scanning calorimetry (DSC). It counts as physicochemical. To be noted: 10 °C/min under nitrogen; irreversible for RM-5071. As for the experimental part: Differential scanning calorimetry (DSC) is a thermo-analytical technique in which the difference in the amount of heat required to increase the temperature of a sample versus a reference are measured as a function of temperature. The reference sample should have a well-defined heat capacity over the range of temperatures to be scanned. One application of DSC is studying phase transitions, such as melting, glass transitions, and/or exothermic decompositions. Such measurements provide qualitative and quantitative information about physical and chemical changes of a molecule.
The calorimetric analysis was performed by the MCC. For the DSC analysis, amounts between 2.34 to 2.46 mg of the samples RM-5071 and desacetyl-NTZA were placed individually in aluminum hermetic pans and covered with an aluminum lid. The temperature method was: step 1: hold for 10 min at 25° C., and step 2: heat from 25° C. to 400 at 10.00 ° C./min. An additional DSC experiment was performed to determine further crystallinity behavior by performing a heat-cool-heat cycling experiment to RM-5071. Approximately 1.69 mg of the RM-5071sample was placed in an aluminum hermetic pan and covered with an aluminum lid. […]
(In general: Differential scanning calorimetry records heat flow against a reference as temperature is scanned.)

Series [8] in a line: XRD temperature test (oven heating, then XRD). The class given is physicochemical. As for the experimental part:
A temperature test was performed in order to determine if any physical and crystallinity changes occurred to the sample RM-5071 upon heating.In order to assess if any change occurred two set of experiments were performed as follows: Experiment A- Two petri dishes were identified as “Fast” and “Slow”. To each petri dish, approximately 2 spatulas of sample RM-5071 were added. Then, the oven was turned on and set to a temperature of-160-165° C. After reaching the temperature, the petri dishes were placed in the oven for 15 minutes. Once the time was completed, the oven was turned off and the “Fast” sample was removed and left to reach room temperature (RT) in the hood. The “Slow” sample was left in the oven to reach RT in a slower manner. The “Slow” sample was removed from the oven, once it reached RT. The samples were analyzed by XRD. Experiment B- The procedure described above was followed at a temperature range of ˜110-120° C. After reaching the temperature, the petri dishes were placed in the oven during 10 minutes. The removal of samples from the oven was followed as previosly described. Afterwards, the samples were analyzed by XRD.

The mark [9] stands for this setting: single 90 mg/kg oral gavage, 4 male and 4 female rats per group.
The mark [10] stands for this setting: single 90 mg/kg oral gavage, rats.

Consider `O=C(Nc1ncc([N+](=O)[O-])s1)c1ccccc1O` [Desacetyl-NTZA, 2-Hydroxybenzoyl-N-[(5-nitro)thiazol-2-yl]amide], for which, in series [1], the solubility in methanol entry is listed as “fairly insoluble” and the solubility in water result was “fairly insoluble”.
`CC(=O)Oc1ccccc1C(=O)Nc1ncc([N+](=O)[O-])s1` [NTZ, 2-(acetolyloxy)-N-(5-nitro-2-thiazolyl) benzamide, reference compound]: in series [1], the solubility in methanol entry was “fairly insoluble” and the solubility in water entry is given as “fairly insoluble”. Also, in series [2] (rat, in vivo, po, 90 mg/kg), the “maximum concentrations (Cmax) of T (medians)” value (from here on “maximum concentrations (Cmax)”) amounted to 1700 ng/mL, the adverse clinical signs result is given as “No adverse clinical signs were observed” and the “time at which Cmax of T was achieved” value was 2 h. For the same compound, in series [3], the plasma half-life was 1.3 h.
For the compound `O=C(Nc1ncc([N+](=O)[O-])s1)c1ccccc1O` [RM-5071, 2-Hydroxybenzoyl-N-[(5-Nitro)Thiazol-2-yl]Amide, Ethanolamine Salt], in series [4], the Apparent solubility entry is recorded as “very soluble”. Besides, the solubility – broadly, the dissolved amount per volume that the medium holds – in series [4] (aqueous with cosolvent or surfactant or cyclodextrin, Apparent Solubility of RM-5071) is greater than 1000 µg/mL. The solubility in series [4] (aqueous with cosolvent or surfactant or cyclodextrin, Apparent Solubility of RM-5071 (concentration limit)) is greater than 1000 µg/mL. For the same compound, the solubility in series [4] (organic solvent or mixture, Apparent Solubility of RM-5071 (concentration limit)) was found to be 33 µg/mL. Also, in series [4] (water, Apparent Solubility of RM-5071 (concentration limit)), the solubility is less than 5 µg/mL. Further, the “solubility in ethyl acetate” value in series [1] is reported as “not soluble”. In series [1] (organic solvent or mixture), the solubility is roughly 5000 µg/mL. In addition, the pKa (commonly the pH at which an ionisable group is half protonated) in series [5] turned out to be 8.8. In series [5] (1 mg/mL RM-5071 solution, initial), this compound displayed a pH of solution of 9.44. The “pH at which full dissolution of the solid is achieved” value in series [5] (1 mg/mL, titration with NaOH) came to 10.63. For the same compound, in series [6] (10 °C/min under nitrogen), the “First step Temperature (° C.)” value is 85-160 °C, the “Second step Temperature(° C.)” value was 160-254 °C, the “Second step Weight loss (%)” value stood at 30.93% and the “Third step Temperature(° C.)” value was 254-700 °C. Besides, in series [6] (10 °C/min under nitrogen), the “Third step Weight loss (%)” value is on record as 26.62%. Besides, the total weight loss in series [6] (25 to 700 °C under nitrogen) amounted to 77%. For the same compound, the “maximum concentrations (Cmax)” value in series [2] (rat, in vivo, po, 90 mg/kg) was 4700 ng/mL. In series [2] (rat, in vivo), the “bioavailability in terms of the maximum concentration compared to NTZA” value is “more bioavailable”, the “mean AUC0-12h relative to NTZ” value was “roughly the same” and the “mean AUC0-12h relative to RM-5072” value was “almost double”. For the same compound, in series [2] (setting [9]), the adverse clinical signs entry was “No adverse clinical signs were observed”. Further, in series [2] (setting [10]), the “plasma concentrations of T and TG (free and glucurono-conjugated T) compared to RM-5072 or NTZ” value is on record as “higher”; the “speed of availability of T in plasma compared to NTZ” value is on record as “dramatically improve”; the “variability of absorption compared to RM-5072 or NTZ” value is on record as “less variability”. Moreover, the “DSC peak transition temperature (exothermic; solid stable up to)” value in series [7] came to 163 °C. In series [8] (Experiment A: 160-165° C., 15 minutes), the “physical and crystallinity changes upon heating” value is “changed from bright yellow to a black powder with beige portions”. Besides, in series [8] (Experiment B: 110-120° C., 10 minutes), the “physical and crystallinity changes upon heating” value is “does not change significantly”.
Consider `O=C(Nc1ncc([N+](=O)[O-])s1)c1ccccc1O` [RM-5072, 2-Hydroxybenzoyl-N-[(5-Nitro)Thiazol-2-yl]Amide, Morpholine Salt], for which the “maximum concentrations (Cmax)” value in series [2] (rat, in vivo, po, 90 mg/kg) was 3100 ng/mL. Besides, the adverse clinical signs result in series [2] (setting [9]) was “No adverse clinical signs were observed”. The “speed of availability of T in plasma compared to NTZ” value in series [2] (setting [10]) is recorded as “dramatically improve”.

These data come from US20230303504A1, “CRYSTALLINE SALTS OF TIZOXANIDE AND 2-HYDROXY-N-(5-CHLORO-1,3-THIAZOL-2-YL)BENZAMIDE (RM-4848) WITH ETHANOLAMINE, MORPHOLINE, PROPANOLAMINE, PIPERAZINE AND N-METHYLPIPERAZINE” (priority 2020, published 2023).
